Patent US20140377289A1, “Metallodrugs Having Improved Pharmacological Properties, and Methods of Manufacture and Use Thereof” (MetalloPharm, LLC, priority 2011, published 2014)

How the values were obtained:
[1] = system: HCV RNA replicon in ET (luc-ubi-neo/ET) Huh7 cells; conditions: read-out: antiviral IC50; 72 h, replicon-derived Luc activity
[2] = system: ET (luc-ubi-neo/ET) Huh7 human hepatoma cell line; conditions: read-out: cytotoxicity TC50; 72 h, CytoTox-1 colorimetric assay
S. aureus sortase A = S. aureus sortase A (Staphylococcus aureus, UniProt Q2FV99); assay type: biochemical; conditions: for activity for catalyst concentration of 1 μM: catalyst concentration 1 μM
Procedure: Apparent binding affinities and rates of inactivation for S. aureus sortase A by several metallopeptide derivatives were evaluated. […]

S. aureus sortase A, sequence (Q2FV99 whole entry): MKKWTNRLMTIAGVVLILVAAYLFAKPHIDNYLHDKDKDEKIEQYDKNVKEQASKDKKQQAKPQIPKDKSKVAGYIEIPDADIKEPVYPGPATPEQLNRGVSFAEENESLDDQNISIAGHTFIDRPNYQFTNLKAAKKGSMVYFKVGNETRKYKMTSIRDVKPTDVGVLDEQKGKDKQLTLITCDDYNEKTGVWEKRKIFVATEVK

Substance	IC50 [1] [nM]	CC50 [2] [nM]	IC50 (S. aureus sortase A) [nM]	activity for catalyst concentration of 1 μM (S. aureus sortase A)
Cu-GGHGKYKETDLLILFKDDYFAKKNEERK	550	> 100000		
Cu-GGHGKYKETDLLILFKDDYFAKKNEERKKDEL	750	> 50000		
Cu-GGHGLPET			> 100000	0.027
Cu-GGHGLPETG			> 100000	0.012
Cu-GGHGYrFK	1380	> 100000		
Cu-GGHGYrFKGGGKDEL	910	> 100000		
Cu-GGHGYrFKGGGYGRKKRRQRRR	950	96000		
Cu-GGHKYKETDLLILFKDDYFAKKNEERKYGRKKRRQRRR	830	> 50000		
Cu-GGHLPETG			> 100000	0.017
Cu-GGHYrFKGGGYGRKKRRQRRR	1850	84000		
